Earlier results in patent US20190077874A1, “METHODS AND COMPOSITIONS FOR THE TREATMENT OF TUBEROUS SCLEROSIS” (National Tuberous Sclerosis Association, Inc., priority 2017, published 2019).

Legend:
[1] = tested on: TSC patients; settings: previous antiepileptic drugs
[2] = tested on: refractory partial-onset seizures; settings: patients with refractory partial-onset seizures
[3] = tested on: infantile spasms in the setting of TSC
[4] = tested on: TSC patients with medically refractory epilepsy and SEGAs; settings: case studies of TSC patients
[5] = most commonly hypertension, immune suppression and infection, electrolyte imbalance etc.
[6] = tested on: IL-1β; settings: TSC mouse model
[7] = tested on: TSC mouse model; settings: Zhang et al.
[8] = tested on: CXCL10; settings: TSC mouse model

## C=CC(N)CCC(=O)O (stereo not drawn) [VGB, vigabatrin]
[1]
  patients in whom the antiepileptic drug failed: 66%
[2]
  patients in whom treatment is ineffectual: more than 75%
[3]
  efficacy in treating infantile spasms: particularly effective

## CO[C@H]1C[C@@H]2CC[C@@H](C)[C@@](O)(O2)C(=O)C(=O)N2CCCC[C@H]2C(=O)O[C@H]([C@H](C)C[C@@H]2CC[C@@H](OCCO)[C@H](OC)C2)CC(=O)[C@H](C)/C=C(\C)[C@@H](O)[C@@H](OC)C(=O)[C@H](C)C[C@H](C)/C=C/C=C/C=C/1C [everolimus]
[4]
  SEGA size: dramatic reduction
  seizure frequency: dramatic reduction

## CC[C@@H](C(N)=O)N1CCCC1=O [levetiracetam]
[1]
  patients in whom the antiepileptic drug failed: 67%

## CC1(C)O[C@@H]2[C@@H](CO[C@@]3(COS(N)(=O)=O)OC(C)(C)O[C@@H]23)O1 [topiramate]
[1]
  patients in whom the antiepileptic drug failed: 58%

## adrenocorticotropic hormone (SYSMEHFRWGKPVGKKRRPVKVYPNGAEDESAEAFPLEF; Corticotropin; UniProt P01189 138-176, looked up) [ACTH, mainstay therapy for the treatment of seizures in TSC patients]
[5]
  treated patients with adverse effects: up to 85%

## epicatechin-3-gallate
[6]
  increased production of IL-1β: reverse the increased production
[7]
  seizures: reduced seizures
  survival: improved survival
[8]
  increased production of CXCL10: reverse the increased production
